Experimental data from PubChem BioAssay AID248 (DTP/NCI, 2004).
“And” between values parts separate entries of the source, which are not always exact repeats. Equal entries are not always repeated. Toxic doses and inconclusive results are not listed. No stated cut-off is given here; in the data, active means T/C of 150% or more; inactive means T/C below 125%.

Test system: L1210 leukemia ip in BDF1 mice, survival T/C
Assay: NCI In Vivo Anticancer Drug Screen. Data for tumor model L1210 Leukemia (intraperitoneal) in B6D2F1 (BDF1) mice
Conditions: endpoint: mean survival time, higher = longer survival
Summary of the method: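 Antitumor effect is assessed in tumor-bearing animals. Survival in the compound arm is compared with a vehicle-dosed control arm and expressed as their quotient.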

[1] = dose: 50.0 mg/kg/injection, schedule: Q01DX009 (ip), vehicle: saline
[2] = dose: 100.0 mg/kg/injection, schedule: Q04DX002 (ip), vehicle: Klucel (hydroxypropylcellulose) (HPC)
[3] = dose: 200.0 mg/kg/injection, schedule: Q04DX002 (ip), vehicle: Klucel (hydroxypropylcellulose) (HPC)
[4] = dose: 400.0 mg/kg/injection, schedule: Q04DX002 (ip), vehicle: Klucel (hydroxypropylcellulose) (HPC)

Measured: T/C

Nc1ncnc2c1cnn2Cc1ccc(Cl)cc1
inactive: [1] 100 % of control | dose: 100.0 mg/kg/injection, schedule: Q01DX001 (ip), vehicle: carboxymethylcellulose (CMC) 98 % of control and 103 % of control | dose: 100.0 mg/kg/injection, schedule: Q01DX009 (ip), vehicle: saline 88 % of control | dose: 100.0 mg/kg/injection, schedule: Q04DX003 (ip), vehicle: carboxymethylcellulose (CMC) 97 % of control | dose: 200.0 mg/kg/injection, schedule: Q01DX001 (ip), vehicle: carboxymethylcellulose (CMC) 93 % of control and 115 % of control | dose: 200.0 mg/kg/injection, schedule: Q04DX003 (ip), vehicle: carboxymethylcellulose (CMC) 95 % of control | dose: 400.0 mg/kg/injection, schedule: Q01DX001 (ip), vehicle: carboxymethylcellulose (CMC) 96 % of control and 121 % of control

Nc1ccc(C(=O)OCCCN2CCCCC2)cc1
inactive: dose: 12.5 mg/kg/injection, schedule: Q01DX009 (ip), vehicle: saline 101 % of control | dose: 25.0 mg/kg/injection, schedule: Q01DX009 (ip), vehicle: saline 97 % of control | [1] 101 % of control

COC1OC(CO)C(O)C1n1cnc2c(SC)ncnc21 (stereo not drawn)
inactive: dose: 100.0 mg/kg/injection, schedule: Q04DX002 (ip), vehicle: saline 107 % of control | dose: 200.0 mg/kg/injection, schedule: Q04DX002 (ip), vehicle: saline 104 % of control

O=C(NCCNC(=O)c1cccnc1)c1ccncc1
inactive: dose: 100.0 mg/kg/injection, schedule: Q04DX003 (ip), vehicle: acetone 95 % of control | dose: 200.0 mg/kg/injection, schedule: Q04DX003 (ip), vehicle: acetone 105 % of control | dose: 400.0 mg/kg/injection, schedule: Q04DX003 (ip), vehicle: acetone 106 % of control

O=C1c2ccccc2C(=O)N1c1cc(O)cc(O)c1
inactive: dose: 100.0 mg/kg/injection, schedule: Q01DX009 (ip), vehicle: water 95 % of control | dose: 100.0 mg/kg/injection, schedule: Q04DX003 (ip), vehicle: water 96 % of control | dose: 200.0 mg/kg/injection, schedule: Q01DX009 (ip), vehicle: water 95 % of control | dose: 200.0 mg/kg/injection, schedule: Q04DX003 (ip), vehicle: water 94 % of control | dose: 400.0 mg/kg/injection, schedule: Q01DX009 (ip), vehicle: water 101 % of control | dose: 400.0 mg/kg/injection, schedule: Q04DX003 (ip), vehicle: water 96 % of control

O=C(CCCCNC(=O)C1CCCN1Sc1ccc([N+](=O)[O-])cc1[N+](=O)[O-])OCc1ccccc1 (stereo not drawn)
inactive: [2] 90 % of control | [3] 94 % of control | [4] 94 % of control

NC(=O)N/N=C(/CBr)c1ccc(-c2ccccc2)cc1
inactive: dose: 25.0 mg/kg/injection, schedule: Q04DX003 (ip), vehicle: saline 101 % of control | dose: 50.0 mg/kg/injection, schedule: Q04DX003 (ip), vehicle: saline 95 % of control | dose: 100.0 mg/kg/injection, schedule: Q01DX001 (ip), vehicle: saline 96 % of control | dose: 100.0 mg/kg/injection, schedule: Q04DX003 (ip), vehicle: saline 91 % of control

Cc1ccccc1N=Nc1c(O)n(-c2ccc(Cl)cc2)c(=S)n(-c2ccccc2)c1=O
inactive: dose: 75.0 mg/kg/injection, schedule: Q04DX003 (ip), vehicle: Klucel (hydroxypropylcellulose) (HPC) 100 % of control | dose: 150.0 mg/kg/injection, schedule: Q04DX003 (ip), vehicle: Klucel (hydroxypropylcellulose) (HPC) 96 % of control | dose: 300.0 mg/kg/injection, schedule: Q04DX003 (ip), vehicle: Klucel (hydroxypropylcellulose) (HPC) 107 % of control

CCCCCCN1C(C)C1C(C)C (stereo not drawn)
inactive: dose: 20.0 mg/kg/injection, schedule: Q01DX009 (ip), vehicle: saline 114 % of control | dose: 20.0 mg/kg/injection, schedule: Q04DX003 (ip), vehicle: Klucel (hydroxypropylcellulose) (HPC) 105 % of control | dose: 40.0 mg/kg/injection, schedule: Q01DX009 (ip), vehicle: saline 115 % of control | dose: 40.0 mg/kg/injection, schedule: Q04DX003 (ip), vehicle: Klucel (hydroxypropylcellulose) (HPC) 100 % of control | dose: 80.0 mg/kg/injection, schedule: Q01DX009 (ip), vehicle: saline 107 % of control | dose: 80.0 mg/kg/injection, schedule: Q04DX003 (ip), vehicle: Klucel (hydroxypropylcellulose) (HPC) 105 % of control

CCC(C)OC(=O)Nc1cccc(OC(=O)NC)c1 (stereo not drawn)
inactive: dose: 100.0 mg/kg/injection, schedule: Q04DX003 (ip), vehicle: saline with Tween-80 104 % of control | dose: 200.0 mg/kg/injection, schedule: Q04DX003 (ip), vehicle: saline with Tween-80 94 % of control | dose: 400.0 mg/kg/injection, schedule: Q04DX003 (ip), vehicle: saline with Tween-80 97 % of control

CCCCNC(=O)N(CC)c1cccc(C)c1
inactive: [2] 105 % of control | [3] 118 % of control | [4] 102 % of control
